pKi: −log10 of the molar value. Non-standard residues stand in square brackets, D forms with d. Residues, ends and D or L forms follow the SMILES beside them. ξ: configuration not given here. *: point of attachment. Sta = CC(C)C[C@H](N)[C@@H](O)CC(=O)O; X1 = CC(=O)c1cn(*)c2ccccc12; Isovaleryl = CC(C)CC(=O)*; ξIva = CCC(C)(N)C(=O)O

In assay [1] the target is Cathepsin B (Homo sapiens) (UniProt P07858). Briefly: Second order rate constant for cathepsin B.
The target in assay [2] is Procathepsin L (Homo sapiens) (UniProt P07711). As to the kind of experiment: Second order rate constant for cathepsin L.
Chain of Procathepsin L (Homo sapiens) (P07711 114-333 limits assumed): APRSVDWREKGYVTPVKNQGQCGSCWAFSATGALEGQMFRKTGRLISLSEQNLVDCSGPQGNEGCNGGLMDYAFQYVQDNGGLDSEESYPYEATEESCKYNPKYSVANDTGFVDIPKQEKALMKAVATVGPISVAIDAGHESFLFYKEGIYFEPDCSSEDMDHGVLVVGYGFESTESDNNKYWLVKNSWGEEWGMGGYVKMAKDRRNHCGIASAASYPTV
The target of another assay is Pepsin A (Sus scrofa, UniProt P00791). Briefly: (§1) Inhibitory activity against aspartyl protease pepsin.
Chain of Pepsin A (P00791 whole entry): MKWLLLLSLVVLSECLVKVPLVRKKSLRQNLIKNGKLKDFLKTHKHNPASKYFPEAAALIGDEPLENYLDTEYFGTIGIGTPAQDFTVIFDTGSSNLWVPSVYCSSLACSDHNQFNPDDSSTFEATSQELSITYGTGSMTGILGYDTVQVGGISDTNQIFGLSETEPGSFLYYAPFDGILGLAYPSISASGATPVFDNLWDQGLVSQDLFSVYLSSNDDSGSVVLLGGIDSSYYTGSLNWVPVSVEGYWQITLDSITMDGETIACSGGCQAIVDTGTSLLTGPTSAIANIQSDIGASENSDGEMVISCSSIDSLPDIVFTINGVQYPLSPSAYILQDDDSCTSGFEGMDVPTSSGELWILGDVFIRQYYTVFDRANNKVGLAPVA
The target in assay [3] is Cathepsin B (Homo sapiens) (UniProt P07858). Briefly: Inhibitory activity against cysteine protease cathepsin B.
Assay [4] deals with Procathepsin L (Homo sapiens) (UniProt P07711). Briefly: Inhibitory activity against cysteine protease cathepsin L.
The target of another assay is Pepsin A (Sus scrofa) (UniProt P00791). Described as §1.
Chain of Pepsin A (Sus scrofa) (P00791 60-385 limits assumed): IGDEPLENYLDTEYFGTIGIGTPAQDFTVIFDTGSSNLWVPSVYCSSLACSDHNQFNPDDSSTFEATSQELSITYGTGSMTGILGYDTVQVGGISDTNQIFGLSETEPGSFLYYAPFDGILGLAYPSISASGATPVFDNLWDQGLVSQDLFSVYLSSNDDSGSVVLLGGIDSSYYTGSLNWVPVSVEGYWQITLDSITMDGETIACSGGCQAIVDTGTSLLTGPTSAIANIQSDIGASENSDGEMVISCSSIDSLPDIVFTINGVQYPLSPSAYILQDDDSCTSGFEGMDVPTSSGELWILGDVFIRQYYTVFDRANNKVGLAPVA
The target of assay [5] is Serine protease 1 (Homo sapiens) (UniProt P07477). Briefly: Inhibitory activity against serine protease trypsin.
Chain of Serine protease 1 (Homo sapiens) (P07477 whole entry): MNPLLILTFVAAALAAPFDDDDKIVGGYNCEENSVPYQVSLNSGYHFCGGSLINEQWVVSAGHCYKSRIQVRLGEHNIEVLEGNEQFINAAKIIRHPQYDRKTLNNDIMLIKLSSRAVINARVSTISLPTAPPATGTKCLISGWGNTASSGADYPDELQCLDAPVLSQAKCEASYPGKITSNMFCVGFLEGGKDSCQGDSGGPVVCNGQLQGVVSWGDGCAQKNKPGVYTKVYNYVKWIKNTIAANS

In the case of `CC(C)CCNC(=O)[C@H](CC(C)C)NC(=O)[C@@H]1N[C@H]1C(=O)O`, the k2/Ki in assay [1] was determined as 17000 M⁻¹ s⁻¹; in assay [2] it was 120000 M⁻¹ s⁻¹.
`CCC(C)(N)C(=O)N[C@H](C(=O)N[C@@H](CC(C)C)[C@@H](O)CC(=O)N[C@@H](C)C(=O)n1cc(C(C)=O)c2ccccc21)C(C)C` (some centres undefined) (H-[ξIva]V[Sta]A-X1) had a pKi on Pepsin A of 8.52.
On Pepsin A, `CC(C)CC(=O)N[C@H](C(=O)N[C@H](C(=O)N[C@@H](CC(C)C)[C@@H](O)CC(=O)N[C@@H](C)C(=O)N[C@@H](CC(C)C)[C@@H](O)CC(=O)O)C(C)C)C(C)C` (Isovaleryl-VV[Sta]A[Sta]-OH) had a pKi of 10.34.
For `CC[C@H](NC(=O)C[C@H](O)[C@H](CC(C)C)NC(=O)[C@H](CC(C)C)NC(=O)[C@@H]1N[C@H]1C(=O)O)C(=O)N[C@H](/C=C/C(=O)O)CCCN=C(N)N` [MIRAZIRIDINE A], the Affinity turned out to be 15000 M⁻¹ s⁻¹ in assay [3], 1e+06 M⁻¹ s⁻¹ in assay [4], 14 nM at Pepsin A (Sus scrofa) and 60 µM in assay [5]. The molecule further showed a pKi at Pepsin A of 7.85.

(Values after ChEMBL document CHEMBL1137960, “Miraziridine A: natures blueprint towards protease class-spanning inhibitors” (Bioorg Med Chem Lett, 2004).)
